Blank lines part the entries; values can stand above or below the compound they belong to.
Tests used:
[1] = CellTiter-Glo luminescent cell viability assay; format: cell-based
[2] = target: T1, GFP-FLMBT (GFP fusion of full-length L3MBTL3) (Homo sapiens, UniProt Q96JM7); assay: Displacement of mero76-1 from GFP-FLMBT in HEK293 cells; format: cell-based
T1 sequence (Q96JM7 1-780): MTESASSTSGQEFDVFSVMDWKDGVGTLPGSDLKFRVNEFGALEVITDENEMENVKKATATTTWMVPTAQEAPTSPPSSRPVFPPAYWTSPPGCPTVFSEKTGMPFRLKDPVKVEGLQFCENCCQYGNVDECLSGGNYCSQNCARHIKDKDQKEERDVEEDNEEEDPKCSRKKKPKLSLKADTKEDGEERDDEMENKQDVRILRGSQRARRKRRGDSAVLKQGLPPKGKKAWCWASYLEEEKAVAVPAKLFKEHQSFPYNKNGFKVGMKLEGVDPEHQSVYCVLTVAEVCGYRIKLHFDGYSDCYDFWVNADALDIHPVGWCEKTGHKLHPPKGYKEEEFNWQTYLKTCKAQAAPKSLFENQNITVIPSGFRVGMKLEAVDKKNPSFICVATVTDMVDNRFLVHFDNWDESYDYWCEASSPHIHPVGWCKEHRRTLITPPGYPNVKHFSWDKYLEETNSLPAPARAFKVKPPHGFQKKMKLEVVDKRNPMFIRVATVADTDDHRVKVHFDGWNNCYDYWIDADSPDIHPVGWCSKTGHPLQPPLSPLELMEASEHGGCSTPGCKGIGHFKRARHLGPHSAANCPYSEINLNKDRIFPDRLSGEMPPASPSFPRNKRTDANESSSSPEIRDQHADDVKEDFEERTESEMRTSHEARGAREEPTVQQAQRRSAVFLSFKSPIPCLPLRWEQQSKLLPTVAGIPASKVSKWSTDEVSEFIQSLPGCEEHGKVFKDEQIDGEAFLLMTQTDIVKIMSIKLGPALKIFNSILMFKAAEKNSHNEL

[3] = target: T2, endogenous L3MBTL3 (Homo sapiens, UniProt Q96JM7); assay: Biotin-1 pull-down; format: binding; settings: G-401 cell lysates, Western analysis
T2 sequence (Q96JM7 1-780): T1 sequence (Q96JM7 1-780)

[4] = tested on: GFP fusion protein containing the three MBT domains of L3MBTL3 (GFP-3MBT); settings: read-out: EC50, effect on subnuclear localization of GFP-3MBT; cells; cited from earlier work
[5] = target: T3, L3MBTL1 (Homo sapiens, UniProt Q9Y468); assay: Isothermal titration calorimetry; format: binding; settings: in words
T3 sequence (Q9Y468 1-772 isoform Q9Y468-1): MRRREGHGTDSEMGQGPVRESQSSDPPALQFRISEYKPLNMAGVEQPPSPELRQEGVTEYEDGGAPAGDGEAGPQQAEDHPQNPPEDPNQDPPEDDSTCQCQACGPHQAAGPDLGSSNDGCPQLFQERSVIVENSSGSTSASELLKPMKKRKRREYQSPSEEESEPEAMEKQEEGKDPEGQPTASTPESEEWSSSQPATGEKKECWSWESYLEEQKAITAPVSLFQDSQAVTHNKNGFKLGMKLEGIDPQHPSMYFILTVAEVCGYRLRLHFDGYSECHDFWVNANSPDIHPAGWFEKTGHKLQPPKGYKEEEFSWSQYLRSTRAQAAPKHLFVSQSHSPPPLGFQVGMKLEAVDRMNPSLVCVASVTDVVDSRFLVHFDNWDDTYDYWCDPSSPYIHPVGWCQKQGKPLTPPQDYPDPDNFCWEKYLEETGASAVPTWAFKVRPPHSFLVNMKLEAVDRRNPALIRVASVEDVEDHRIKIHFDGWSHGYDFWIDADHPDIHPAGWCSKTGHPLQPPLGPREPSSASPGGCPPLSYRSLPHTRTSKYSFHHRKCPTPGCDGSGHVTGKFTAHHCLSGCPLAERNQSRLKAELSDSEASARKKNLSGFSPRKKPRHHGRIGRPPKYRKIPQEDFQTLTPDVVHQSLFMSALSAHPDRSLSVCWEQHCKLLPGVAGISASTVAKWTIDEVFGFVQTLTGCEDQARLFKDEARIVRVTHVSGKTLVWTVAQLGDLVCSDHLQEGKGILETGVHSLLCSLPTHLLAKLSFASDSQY

[6] = tested on: L3MBTL1 L361F
[7] = target: T4, L3MBTL3 (Homo sapiens, UniProt Q96JM7); assay: AlphaScreen competition assay; settings: in words
T4 sequence (Q96JM7 1-780): T1 sequence (Q96JM7 1-780)

displacement of mero76-1 from GFP-L3MBTL3 ([2]; 1 equivalent relative to mero76-1): displace mero76-1 from GFP-L3MBTL3
competition with biotin-1 for binding to endogenous L3MBTL3 [3]: competed off with soluble 1
Structure (SMILES): O=C(c1ccc(C(=O)N2CCC(N3CCCC3)CC2)c(Nc2ccccc2)c1)N1CCC(N2CCCC2)CC1 [Compound 1]
cytotoxicity, no observable level up to [1]: > 100 µM
displacement of mero76-1 from GFP-FLMBT ([2]; 1 or 5 equivalents relative to mero76-1 (both concentrations)): largely displaces mero76-1 from GFP-FLMBT
EC50 [4]: ~500 nM

Structure (SMILES): CCN1Cc2ccc(NC(=O)c3ccc(C(=O)N4CCC(C5CCCN5)CC4)cc3)cc2C1 (centres unmarked) [Compound 2]
cytotoxicity, no observable level up to [1]: > 100 µM

Structure (SMILES): O=C(c1ccc(C(=O)N2CCC(N3CCCC3)CC2)cc1)N1CCC(N2CCCC2)CC1 [Compound 5]
cytotoxicity, no observable level up to [1]: > 100 µM

Structure (SMILES): O=C(c1ccc(C(=O)N2CCC(N3CCCCC3)CC2)cc1)N1CCC(N2CCCCC2)CC1 [Compound 37]
competition with biotin-1 for binding to endogenous L3MBTL3 [3]: failed to compete for binding to endogenous L3MBTL3

affinity for L3MBTL1 by follow-up ITC [5]: micromolar affinity
Structure (SMILES): O=C(c1ccc(C(=O)N2CCC(N3CCCC3)CC2)c(NCc2ccccc2)c1)N1CCC(N2CCCC2)CC1 [Compound 49]

Structure (SMILES): O=C(c1cccc(Br)c1)N1CCC(N2CCCC2)CC1 [Compound 57]
change in affinity for L3MBTL1 L361F relative to wildtype L3MBTL1 by ITC [6]: ≤ 2 fold
binding to L3MBTL3 versus L3MBTL1 [7]: equally well
